Assay: in vitro
Conditions: human, hela cells, % viability
For `Cc1ccc(CN(CCCN(C)C)Cc2nc(C)n3ccccc23)o1` [CBK282482], the viability at 28.5 h, 10 µM was 106%.
In the case of `Cc1ccc(C)c2c(C)c(C(=O)NCC[S+](C)[O-])[nH]c12` (stereo not shown) [CBK282484], the viability at 28.5 h, 10 µM is reported as 76.5%.
For `Cc1[nH]c2c(C)cccc2c1CC(=O)NC1CCCN(C)C1` (stereo not shown) [CBK282485], the viability at 28.5 h, 10 µM was 74.1%.
For `Cc1nc2ccc(C(=O)NC(C)Cc3cccs3)cc2[nH]1` (stereo not shown) [CBK282487], the viability at 28.5 h, 10 µM was 86.8%.
`Cc1nc[nH]c1CN(Cc1cccc(F)c1)Cc1ccco1` [CBK282493] showed a viability at 28.5 h, 10 µM of 75.7%.
With `COc1cccc(CN(Cc2ccco2)Cc2[nH]cnc2C)c1` [CBK282495] the viability at 28.5 h, 10 µM was 81.4%.
For `COc1cccc(CN(Cc2ccco2)Cc2cncn2C)c1` [CBK282497], the viability at 28.5 h, 10 µM was 102%.
`O=C(Nc1ccc(Oc2cccnc2)cc1)C1CCCN1` (stereo not shown) [CBK282498] showed a viability at 28.5 h, 10 µM of 110%.
With `COc1cc(NC(=O)C2CCCN2)ccc1-n1cccc1` (stereo not shown) [CBK282500] the viability at 28.5 h, 10 µM was 85.4%.
`Cc1n[nH]c(C)c1CNC(=O)C1CCN(Cc2ccc(F)cc2)CC1` [CBK282502] showed a viability at 28.5 h, 10 µM of 92%.
`Cc1nc2ccc(C(=O)NC3CCCOC3)cc2s1` (stereo not shown) [CBK282509] showed a viability at 28.5 h, 10 µM of 82.8%.
Work on `OC(CN1CCC(O)(c2ccc(F)cc2)CC1)c1ccc(F)cc1` (stereo not shown) [CBK282510] yielded a viability at 28.5 h, 10 µM of 79%.
With `CC(=O)c1cn(CCC(=O)NC2CCCOC2)c2ccccc12` (stereo not shown) [CBK282515] the viability at 28.5 h, 10 µM was 114%.
With `CN1CCCC(NC(=O)C2CCN(Cc3ccc(F)cc3)CC2)C1` (stereo not shown) [CBK282516] the viability at 28.5 h, 10 µM was 119%.
In the case of `CCCN1C[C@H](NC(=O)C2CC2)[C@@H](c2ccc(OC)cc2)C1` [CBK282518], the viability at 28.5 h, 10 µM is reported as 116%.
`O=C(NC1CCCOC1)C1CCN(Cc2ccccc2Cl)CC1` (stereo not shown) [CBK282520] gave a viability at 28.5 h, 10 µM of 107%.
Compound `CCC(CC(=O)NC1CCCOC1)c1c[nH]c2ccccc12` (stereo not shown) [CBK282521] has a viability at 28.5 h, 10 µM of 119%.
`CC(Cc1cccs1)NC(=O)c1cc2c([nH]c1=O)CCCCC2` (stereo not shown) [CBK282523] gave a viability at 28.5 h, 10 µM of 109%.
`C=CCC1(CC=C)CCN1C(=O)c1cc2c([nH]c1=O)CCCCC2` [CBK282524] gave a viability at 28.5 h, 10 µM of 103%.
In the case of `Cc1nc[nH]c1CN(Cc1cccc(F)c1)CC1CCCO1` (stereo not shown) [CBK282525], the viability at 28.5 h, 10 µM is reported as 105%.
With `C=Cn1ncc(CN2CCN(C3CCCCC3)C(=O)C2)c1C` [CBK282526] the viability at 28.5 h, 10 µM was 107%.
Work on `CC(=O)c1cc(C(=O)Nc2cnn(Cc3ccc(F)cc3)c2)cs1` [CBK282528] yielded a viability at 28.5 h, 10 µM of 104%.
With `CC(=O)c1cc(C(=O)N2CCC(O)(c3ccccc3C)CC2)cs1` [CBK282532] the viability at 28.5 h, 10 µM was 92.8%.
For `Cc1c(C(=O)NCc2cc(C3CC3)[nH]n2)[nH]c2c(Cl)cccc12` [CBK282533], the viability at 28.5 h, 10 µM was 70.2%.
`CCCN1CCC(CNC(=O)c2cc(C3CC3)nn2C)CC1` [CBK282536] showed a viability at 28.5 h, 10 µM of 101%.
Compound `CCc1nc2ccc(NC(=O)c3csc(C(C)=O)c3)cc2[nH]1` [CBK282538] has a viability at 28.5 h, 10 µM of 114%.
`Cc1c(C(=O)N2CCN(C3CCCCC3)C(=O)C2)[nH]c2ccccc12` [CBK282539] showed a viability at 28.5 h, 10 µM of 99.3%.
Compound `COc1ccc2cc(C(=O)NCCCc3ccccn3)n(C)c2c1` [CBK282545] has a viability at 28.5 h, 10 µM of 103%.
For `Cc1nn(CCC(=O)NC(c2ccccc2)c2cccnc2)c(C)c1C` (stereo not shown) [CBK282547], the viability at 28.5 h, 10 µM was 86.3%.
In the case of `Cc1cc(C(=O)NCCn2ccc(C)n2)c2cccc(Cl)c2n1` [CBK282549], the viability at 28.5 h, 10 µM is reported as 79.6%.
Work on `Cc1cc(C(=O)NCCCC2CCOC2)c2cccc(Cl)c2n1` (stereo not shown) [CBK282550] yielded a viability at 28.5 h, 10 µM of 91.7%.
Work on `COCCNC(=O)Cn1c(-c2cccs2)cc2cccnc21` [CBK282554] yielded a viability at 28.5 h, 10 µM of 109%.
With `C[S+]([O-])CCNC(=O)Cn1c(-c2cccs2)cc2cccnc21` (stereo not shown) [CBK282556] the viability at 28.5 h, 10 µM was 89.3%.
`COCC(C)NC(=O)Cn1c(-c2cccs2)cc2cccnc21` (stereo not shown) [CBK282557] showed a viability at 28.5 h, 10 µM of 81.8%.
In the case of `CN1CCN(C(=O)Cn2c(-c3cccs3)cc3cccnc32)CC1` [CBK282558], the viability at 28.5 h, 10 µM is reported as 97%.
Compound `CC(=O)c1cc(C(=O)N(C)CCOc2ccccc2)cs1` [CBK282560] has a viability at 28.5 h, 10 µM of 99.6%.
With `C=Cn1cc(CN2CCN(C3CCCCC3)C(=O)C2)c(C)n1` [CBK282561] the viability at 28.5 h, 10 µM was 109%.
For `CN1CCCC(NC(=O)c2cc(-c3cccs3)no2)C1` (stereo not shown) [CBK282564], the viability at 28.5 h, 10 µM was 87.2%.
`O=C(NC1CCCOC1)c1cc(-c2cccs2)no1` (stereo not shown) [CBK282565] showed a viability at 28.5 h, 10 µM of 82%.
`CC(C)c1cc(C(=O)NCC2CCCN(C(C)C)C2)n(C)n1` (stereo not shown) [CBK282566] showed a viability at 28.5 h, 10 µM of 95.8%.
Compound `CC(C)c1cc(C(=O)N(C)Cc2cccc3ncccc23)n(C)n1` [CBK282567] has a viability at 28.5 h, 10 µM of 86.4%.
`CN1Cc2ccccc2CC1C(=O)N1CCc2ncc(Cl)cc2C1` (stereo not shown) [CBK282568] showed a viability at 28.5 h, 10 µM of 85.5%.
Work on `CC(C)N1CCC(CNC(=O)Cn2ccc3ccc(F)cc32)CC1` [CBK282571] yielded a viability at 28.5 h, 10 µM of 89.9%.
For `C=Cn1ncc(CN2CCc3[nH]c4ccc(OCC)cc4c3C2)c1C` [CBK282574], the viability at 28.5 h, 10 µM was 89.7%.
In the case of `Cc1nc(C)n(C(C)CNC(=O)Cc2coc3cc(C)c(C)cc23)n1` (stereo not shown) [CBK282577], the viability at 28.5 h, 10 µM is reported as 106%.
For `Cc1ccn(CCNC(=O)Cc2coc3cc(C)c(C)cc23)n1` [CBK282578], the viability at 28.5 h, 10 µM was 107%.
`CC1(C(=O)Nc2cnn(Cc3ccc(F)cc3)c2)CCCO1` (stereo not shown) [CBK282585] gave a viability at 28.5 h, 10 µM of 104%.
In the case of `Cc1nc(-c2ccccc2)c(CC(=O)NC2CCCOC2)s1` (stereo not shown) [CBK282586], the viability at 28.5 h, 10 µM is reported as 93.4%.
For `CC(=O)N1CCCc2cc(C(O)CN3CCC(C)CC3)ccc21` (stereo not shown) [CBK282588], the viability at 28.5 h, 10 µM was 87.3%.
`Cc1c(CN(Cc2ccc(F)cc2)CC2CCCO2)cnn1C` (stereo not shown) [CBK282589] showed a viability at 28.5 h, 10 µM of 86%.
Compound `CC(=O)NC1CCN(CC2(c3cccc(F)c3)CCCC2)CC1` [CBK282590] has a viability at 28.5 h, 10 µM of 95.7%.
`COC(=O)CCn1c(-c2ccncc2)cc2cccnc21` [CBK282592] gave a viability at 28.5 h, 10 µM of 65.2%.
For `COC(=O)CCn1c(-c2cccnc2C)cc2cccnc21` [CBK282593], the viability at 28.5 h, 10 µM was 105%.
`CC(C)n1nccc1C(=O)NC1CCN(Cc2cccc(F)c2)CC1` [CBK282596] showed a viability at 28.5 h, 10 µM of 84.5%.
Work on `OCCN(Cc1cccs1)Cc1c[nH]nc1-c1cccs1` [CBK282599] yielded a viability at 28.5 h, 10 µM of 86%.
In the case of `CCCn1nc(C)c(CN(C)Cc2n[nH]c3c2CCCC3)c1C` [CBK282600], the viability at 28.5 h, 10 µM is reported as 95.4%.
Compound `CN1CCC(CNC(=O)C2(c3ccccc3F)CC2)(N(C)C)CC1` [CBK282604] has a viability at 28.5 h, 10 µM of 91.6%.
`Cc1ccn(CCNC(=O)c2[nH]c3c(Cl)cccc3c2C)n1` [CBK282608] showed a viability at 28.5 h, 10 µM of 97.9%.
Compound `Cc1ccc2c(c1)c(C)c(C(=O)NCCn1ccc(C)n1)n2C` [CBK282609] has a viability at 28.5 h, 10 µM of 106%.
With `CN1C[C@]2(CC[C@@H](C(=O)NC3CC3)CC2)Oc2ccccc2C1=O` [CBK282610] the viability at 28.5 h, 10 µM was 102%.
`Cc1nc(C)n(C(C)CNC(=O)Cn2ccc3ccc(F)cc32)n1` (stereo not shown) [CBK282612] gave a viability at 28.5 h, 10 µM of 95.5%.
For `Cc1cc2occ(CC(=O)NCC(C)n3cncn3)c2cc1C` (stereo not shown) [CBK282614], the viability at 28.5 h, 10 µM was 101%.
For `CN1CCC(CN(C)Cc2ccc3cccc(Cl)c3n2)C1` (stereo not shown) [CBK282615], the viability at 28.5 h, 10 µM was 90.2%.
Work on `Cc1c(CN(C)CC2CCN(C)C2)cnn1Cc1ccccc1` (stereo not shown) [CBK282616] yielded a viability at 28.5 h, 10 µM of 105%.
Work on `C=C(C)CN1CCN(C(=O)c2ccnc3ccc(Cl)cc23)CC1` [CBK282617] yielded a viability at 28.5 h, 10 µM of 111%.
With `CC(C)(C)NC(=O)CCn1c(-c2ccncc2)cc2cccnc21` [CBK282620] the viability at 28.5 h, 10 µM was 95.4%.
In the case of `Cc1cc2cc(C(=O)NCC3(N(C)C)CCN(C)CC3)ccc2o1` [CBK282623], the viability at 28.5 h, 10 µM is reported as 90.2%.

— publication PMC12040169 (PLOS Biology, 2025)
